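A five-concentration, 48-hour dose response in 96-well plates underlies each endpoint, interpolated linearly between surrounding concentrations. At the GI50, growth is halved.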 The source made the active and inactive calls. Rule as the data show it: active = GI50 up to about 1.1 µM and inactive = higher.
Key:
Assay in all cases: NCI tumour cell line growth inhibition, 48 h
A549 = tested on: A549
BT-549 = tested on: BT-549
HCT-15 = tested on: HCT-15
HOP-62 = tested on: HOP-62
HOP-92 = tested on: HOP-92
KM12 = tested on: KM12
MCF7 = tested on: MCF7
MDA-MB-231 = tested on: MDA-MB-231
NCI-H226 = tested on: NCI-H226
NCI-H23 = tested on: NCI-H23
OVCAR-4 = tested on: OVCAR-4
OVCAR-8 = tested on: OVCAR-8
PC-3 = tested on: PC-3
SF-295 = tested on: SF-295
SK-MEL-2 = tested on: SK-MEL-2
SK-OV-3 = tested on: SK-OV-3
SN12C = tested on: SN12C
UACC-62 = tested on: UACC-62
MDA-MB-435 = tested on: MDA-MB-435
MDA-N = tested on: MDA-N

SMILES	GI50 (A549)	GI50 (BT-549)	GI50 (HCT-15) [µM]	GI50 (HOP-62)	GI50 (HOP-92)	GI50 (KM12)	GI50 (MCF7)	GI50 (MDA-MB-231)	GI50 (NCI-H226)	GI50 (NCI-H23)	GI50 (OVCAR-4)	GI50 (OVCAR-8)	GI50 (PC-3)	GI50 (SF-295)	GI50 (SK-MEL-2)	GI50 (SK-OV-3)	GI50 (SN12C)	GI50 (UACC-62)	GI50 (MDA-MB-435)	GI50 (MDA-N)
O=C(CCc1ccccc1)ON1C(=S)C(c2ccccc2)(c2ccccc2)N=C1Sc1ccccc1	38.1 µM (inactive)	54 µM (inactive)	24.9	41.8 µM (inactive)	> 100 µM (inactive)	32.6 µM (inactive)	33.7 µM (inactive)	> 100 µM (inactive)	45.3 µM (inactive)	34.4 µM (inactive)	58.1 µM (inactive)	38.7 µM (inactive)	34.3 µM (inactive)	31 µM (inactive)	29.8 µM (inactive)	45.1 µM (inactive)	68.5 µM (inactive)	55.1 µM (inactive)		
CC(C)=CCN1c2ccccc2NC(=O)CC1C (configuration not stated)	> 100 µM (inactive)	22.7 µM (inactive)	> 100	> 100 µM (inactive)	38.7 µM (inactive)	> 100 µM (inactive)	> 100 µM (inactive)	> 100 µM (inactive)	> 100 µM (inactive)	> 100 µM (inactive)	28.4 µM (inactive)	> 100 µM (inactive)	> 100 µM (inactive)	> 100 µM (inactive)	> 100 µM (inactive)	> 100 µM (inactive)	33.3 µM (inactive)		> 100 µM (inactive)	
CC(C)(C)OC(=O)n1cc(C2CN(O)C(=O)C23CCC(=O)N3Cc2ccccc2)c2ccccc21 (configuration not stated)	35.3 µM (inactive)			93.1 µM (inactive)	4.46 µM (inactive)	44.1 µM (inactive)	33.5 µM (inactive)	28.8 µM (inactive)	24.5 µM (inactive)	61.1 µM (inactive)	98.9 µM (inactive)		28 µM (inactive)	78.5 µM (inactive)	14.8 µM (inactive)	23.9 µM (inactive)	27 µM (inactive)	68.1 µM (inactive)	28.6 µM (inactive)	52.7 µM (inactive)
COc1cc(/C=C/C(=O)OC[C@H](Br)[C@H](OC(C)=O)c2ccc3c(c2)OCO3)cc(OC)c1OC	92.7 µM (inactive)	> 100 µM (inactive)	> 100	> 100 µM (inactive)	> 100 µM (inactive)	> 100 µM (inactive)	> 100 µM (inactive)	> 100 µM (inactive)	> 100 µM (inactive)	> 100 µM (inactive)	> 100 µM (inactive)	> 100 µM (inactive)	86.3 µM (inactive)	> 100 µM (inactive)	> 100 µM (inactive)	> 100 µM (inactive)	> 100 µM (inactive)	> 100 µM (inactive)	> 100 µM (inactive)	
c1ccc(-c2cccc(-c3ccccn3)n2)nc1 [TERPYRIDINE]	0.384 µM (active)		0.407	0.52 µM (active)		0.507 µM (active)	0.394 µM (active)	0.397 µM (active)		0.753 µM (active)	0.558 µM (active)	0.453 µM (active)	0.409 µM (active)	0.288 µM (active)	1.17 µM (inactive)	0.783 µM (active)	0.631 µM (active)	0.736 µM (active)	0.483 µM (active)	0.441 µM (active)
CC1(C)Oc2ccc3c(=O)cc(-c4cccs4)oc3c2C1C(=O)O (configuration not stated)	> 100 µM (inactive)			> 100 µM (inactive)			> 100 µM (inactive)	> 100 µM (inactive)	> 100 µM (inactive)	> 100 µM (inactive)		> 100 µM (inactive)	> 100 µM (inactive)	> 100 µM (inactive)	> 100 µM (inactive)	> 100 µM (inactive)	> 100 µM (inactive)	> 10 µM (inactive)	> 100 µM (inactive)	> 100 µM (inactive)
COc1ccc(-n2c(N)c(C#N)c(C#N)c2-c2cccc([N+](=O)[O-])c2)cc1	1.53 µM (inactive)	> 100 µM (inactive)	> 100	67.5 µM (inactive)	15.3 µM (inactive)	62.5 µM (inactive)	61.5 µM (inactive)	67 µM (inactive)	> 100 µM (inactive)	> 100 µM (inactive)	26.5 µM (inactive)	88.9 µM (inactive)	33.5 µM (inactive)	42.5 µM (inactive)	1.77 µM (inactive)	43.7 µM (inactive)	> 100 µM (inactive)	17.5 µM (inactive)	> 100 µM (inactive)	
COc1cc(/C=N/NC(=O)c2ccc(NC(C)=O)cc2OC)ccc1O	> 100 µM (inactive)	> 100 µM (inactive)	76.6		22.6 µM (inactive)	> 100 µM (inactive)	> 100 µM (inactive)		< 0.01 µM (active)	54.6 µM (inactive)	> 100 µM (inactive)	> 100 µM (inactive)	43.5 µM (inactive)	55 µM (inactive)	26.9 µM (inactive)	> 100 µM (inactive)	> 100 µM (inactive)	61.9 µM (inactive)	> 100 µM (inactive)	> 100 µM (inactive)
CC(C)[Si](OC1=C(C(=O)N(C)c2ccccc2Cl)CCC1)(C(C)C)C(C)C	15 µM (inactive)	15.8 µM (inactive)	16.5	17.6 µM (inactive)	18.3 µM (inactive)	20.6 µM (inactive)		16 µM (inactive)	21.1 µM (inactive)	15.7 µM (inactive)	16.3 µM (inactive)	17 µM (inactive)		14.2 µM (inactive)		16.5 µM (inactive)	16.7 µM (inactive)		19 µM (inactive)	19.8 µM (inactive)
CN(C(=O)C1=CCC2(CC1)OCCO2)c1ccccc1OS(=O)(=O)C(F)(F)F	> 100 µM (inactive)		59	27.4 µM (inactive)	> 100 µM (inactive)	25.3 µM (inactive)	> 100 µM (inactive)	> 100 µM (inactive)	16.2 µM (inactive)	> 100 µM (inactive)	57.8 µM (inactive)	81.5 µM (inactive)	> 100 µM (inactive)	90.2 µM (inactive)	> 100 µM (inactive)	> 100 µM (inactive)	> 100 µM (inactive)	> 100 µM (inactive)	> 100 µM (inactive)	> 100 µM (inactive)
Clc1cccc(Cl)c1C1SCc2nc3ncccc3n21 (configuration not stated)	> 100 µM (inactive)		> 100	> 100 µM (inactive)		52.8 µM (inactive)		19 µM (inactive)	66.8 µM (inactive)	> 100 µM (inactive)	52.2 µM (inactive)	> 100 µM (inactive)	> 100 µM (inactive)	> 100 µM (inactive)	> 100 µM (inactive)	> 100 µM (inactive)	> 100 µM (inactive)	> 100 µM (inactive)	39.4 µM (inactive)	62.8 µM (inactive)
O=C(O)c1ccccc1-c1ccccc1C(=O)Nc1ccc2c(c1)nc(O)c1ccccc12	> 100 µM (inactive)	52.4 µM (inactive)	> 100	> 100 µM (inactive)	> 100 µM (inactive)	> 100 µM (inactive)	> 100 µM (inactive)	88.9 µM (inactive)	> 100 µM (inactive)	> 100 µM (inactive)	> 100 µM (inactive)	> 100 µM (inactive)	> 100 µM (inactive)	> 100 µM (inactive)	87.9 µM (inactive)	> 100 µM (inactive)	> 100 µM (inactive)	59.6 µM (inactive)	89.7 µM (inactive)	

— ChEMBL document CHEMBL1201862, “PubChem BioAssay data set” (2004)
